Data reported in patent US3931174A, “Alkylmercaptomethylquinoxaline-1,4-dioxides and oxidized derivatives thereof” (Pfizer Inc., priority 1974, dated 1976).
≈ marks a conversion by molar mass, not a printed value.

How the values were obtained:
Streptococcus pyogenes [1] = test: In vitro MIC, anaerobic agar dilution, Strep. pyogenes; format: cell-based; conditions: brain-heart infusion agar, 37°C.
Procedure: (§1) The in vitro activities are determined under anaerobic conditions in the following manner. Appropriate serial two-fold dilutions of the compounds are mixed with molten brain-heart infusion agar in sterile petri dishes and allowed to solidify. The bacterial cells (approximately 10^5 -10^6 cells) are placed on the top of the agar plate with a Steers replicating device. The plates are incubated at 37°C. in the anaerobic conditions achieved by a Gas Pak (BBL, Cockeysville, […].). The M.I.C. […] The in vitro and in vivo activities of compounds within this invention versus Streptococcus pyogenes and Escherichia coli are presented below: ##SPC4##

Escherichia coli [2] = test: In vitro MIC, anaerobic agar dilution, E. coli; format: cell-based; conditions: brain-heart infusion agar, 37°C.
Procedure: as §1

Streptococcus pyogenes [3] = test: In vivo survivors (SC route), Strep. pyogenes infection; conditions: SC route (subcutaneous); for responders at 100 mg/kg: 100 mg./kg. (footnote b)
Description: (§2) The in vitro and in vivo activities of compounds within this invention versus Streptococcus pyogenes and Escherichia coli are presented below: ##SPC4##

Escherichia coli [4] = test: In vivo survivors (SC route), E. coli infection; conditions: SC route (subcutaneous); for responders at 100 mg/kg: 100 mg./kg. (footnote b)
Description: as §2

SMILES | MIC (Streptococcus pyogenes [1]) | MIC (Escherichia coli [2]) | responders at 50 mg/kg (Streptococcus pyogenes [3]) | responders at 25 mg/kg (Escherichia coli [4]) | responders at 100 mg/kg (Streptococcus pyogenes [3]) | responders at 100 mg/kg (Escherichia coli [4])
CCCSCc1c[n+]([O-])c2ccccc2[n+]1[O-] [H S--CH2 CH2 CH3, 2-n-propylthiomethylquinoxaline 1,4-dioxide] | 50 µg/mL (≈ 200 µM) | 50 µg/mL (≈ 200 µM) | 0% | 60% | – | –
CSCc1c[n+]([O-])c2ccccc2[n+]1[O-] [H S--CH3, 2-methylthiomethylquinoxaline 1,4-dioxide] | 1.56 µg/mL (≈ 7.03 µM) | 1.56 µg/mL (≈ 7.03 µM) | – | – | 50% | 70%
Cc1c(CS(C)(=O)=O)[n+]([O-])c2ccccc2[n+]1[O-] [CH3 SO2 --CH3] | 1.56 µg/mL (≈ 5.82 µM) | 3.12 µg/mL (≈ 11.6 µM) | 10% | 70% | – | –
Cc1c(C[S+](C)[O-])[n+]([O-])c2ccccc2[n+]1[O-] (centres unmarked) [CH3 SO--CH3, 2-methyl-3-methylsulfinylmethylquinoxaline 1,4-dioxide] | 25 µg/mL (≈ 99.1 µM) | > 200 µg/mL | 20% | 10% | – | –

Further lines, with some results ahead:

MIC (Streptococcus pyogenes [1]) | MIC (Escherichia coli [2]) | SMILES | responders at 50 mg/kg (Streptococcus pyogenes [3]) | responders at 25 mg/kg (Escherichia coli [4]) | responders at 100 mg/kg (Streptococcus pyogenes [3]) | responders at 100 mg/kg (Escherichia coli [4])
< 0.391 µg/mL | < 0.391 µg/mL | CCS(=O)(=O)Cc1c[n+]([O-])c2ccccc2[n+]1[O-] [H SO2 --CH2 CH3, 2-Ethylsulfonylmethylquinoxaline-1,4-Dioxide] | 100% | 100% | – | –
1.56 µg/mL (≈ 5.87 µM) | 6.25 µg/mL (≈ 23.5 µM) | CCC[S+]([O-])Cc1c[n+]([O-])c2ccccc2[n+]1[O-] (centres unmarked) [H SO--CH2 CH2 CH3, 2-n-propylsulfinylmethylquinoxaline 1,4-dioxide] | 60% | 50% | – | –
0.781 µg/mL (≈ 3.1 µM) | 3.12 µg/mL (≈ 12.4 µM) | CC[S+]([O-])Cc1c[n+]([O-])c2ccccc2[n+]1[O-] (centres unmarked) [H SO--CH2 CH3, 2-Ethylsulfinylmethylquinoxaline 1,4-Dioxide] | 20% | 90% | – | –
< 0.391 µg/mL | < 0.391 µg/mL | C[S+]([O-])Cc1c[n+]([O-])c2ccccc2[n+]1[O-] (centres unmarked) [H SO--CH3, 2-Methylsulfinylmethylquinoxaline 1,4-Dioxide] | – | – | 30% | 100%
3.12 µg/mL (≈ 11.1 µM) | 25 µg/mL (≈ 88.6 µM) | CCCS(=O)(=O)Cc1c[n+]([O-])c2ccccc2[n+]1[O-] [H SO2 --CH2 CH2 CH3] | 90% | 90% | – | –
1.56 µg/mL (≈ 5.53 µM) | 0.781 µg/mL (≈ 2.77 µM) | CC(C)S(=O)(=O)Cc1c[n+]([O-])c2ccccc2[n+]1[O-] [H SO2 --CH(CH3)2] | 100% | 90% | – | –
< 0.391 µg/mL | < 0.391 µg/mL | CS(=O)(=O)Cc1c[n+]([O-])c2ccccc2[n+]1[O-] [H SO2 --CH3, 2-Methylsulfonylmethylquinoxaline 1,4-Dioxide] | 90% | 100% | – | –
